According to patent US20060094031A1, “Alpha-L-arabinofuranosidase histochemical reporter gene assay” (Stowers Institute for Medical Research, priority 2004, published 2006):
Entries after “also recorded” stand apart in the source; their conditions may differ.

Key:
[1] = biological target: T1, α-L-arabinofuranosidase (S. lividans abfA gene) expressed in NIH 3T3 cells (Streptomyces lividans, UniProt P53627); assay: histochemical (in situ) detection of abfA expression in transfected mammalian cells with chromogenic substrate; type: cell-based; details: for color of cells expressing abfA after staining with the substrate: NIH 3T3 cells transfected with CMV-abfA, fixed 30 hours later, substrate 0.02% in lacZ detection protocol
T1 construct: expressed in transfected cells; host or cells: NIH 3T3 cells transfected with CMV-abfA (pcDNA3 backbone)
T1 sequence (P53627 1-662): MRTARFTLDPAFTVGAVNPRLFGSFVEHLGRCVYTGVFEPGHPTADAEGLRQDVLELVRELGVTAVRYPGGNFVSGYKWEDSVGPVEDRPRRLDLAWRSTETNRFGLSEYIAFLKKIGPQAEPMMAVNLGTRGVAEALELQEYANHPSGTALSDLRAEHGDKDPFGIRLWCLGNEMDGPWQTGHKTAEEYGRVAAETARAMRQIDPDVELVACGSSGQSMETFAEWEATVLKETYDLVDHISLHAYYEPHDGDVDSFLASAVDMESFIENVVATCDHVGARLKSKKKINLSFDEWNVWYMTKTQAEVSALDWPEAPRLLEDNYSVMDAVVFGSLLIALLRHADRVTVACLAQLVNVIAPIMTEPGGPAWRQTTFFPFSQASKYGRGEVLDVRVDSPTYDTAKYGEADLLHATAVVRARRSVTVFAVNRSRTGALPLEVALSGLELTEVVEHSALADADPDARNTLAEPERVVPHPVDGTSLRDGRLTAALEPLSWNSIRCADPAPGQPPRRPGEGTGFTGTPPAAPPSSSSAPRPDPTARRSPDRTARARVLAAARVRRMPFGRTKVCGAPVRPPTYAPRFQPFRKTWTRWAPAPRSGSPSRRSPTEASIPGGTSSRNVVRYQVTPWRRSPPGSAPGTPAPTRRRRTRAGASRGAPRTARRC
Procedure: (§1) FIG. 1 depicts a schematic of the CMV abfA expression vector. […] NIH 3T3 cells were transfected with CMV-abfA and 30 hours later were fixed with 2% formaldehyde, 0.2% glutaraldehyde for 5 minutes and then processed for histochemical detection of abfA expression using a standard protocol for lacZ detection (5), but substituting Z-ara (0.02%) for X-gal. The synthesis for Z-ara is described in Example 3. Just like X-gal, Z-ara is a colorless water-soluable chromogen that forms an insoluable blue precipitate upon hydrolysis. […] Alternative β-galactosidase substrates to X-gal, 6-chloro-3-indolyl-β-D-galactopyranaside (“Red-gal,” Research Organics, Cleveland, Ohio, USA) and 5-bromo-6-chloro-3-indolyl-β-D-galactopyranoside (“Magenta-gal,” BioSynth AG, Switzerland), allow LacZ^+ cells to appear red instead of blue and thus easily distinguishable from Z-ara positive cells.
One feature of the Z-ara substrate is that the 5-bromo-3-indoloxyl-derived final product has birefringent properties.
(§2) To determine whether α-L-arabinofuranosidase and β-galactosidase could be detected both in the same cell, NHI 3T3 cells were co-transfected with CMV-abfA and with proBGN (7), a plasmid encoding the lacZ gene tagged with a nuclear localization signal. […] One day after transfection cells were fixed followed by in situ visualization of β-galactosidase and α-L-arabinofuranosidase activities by incubation with 0.02% Magenta-gal and 0.02% Z-ara, respectively. Imaging was with a Leica DMR microscope mounted with an Optronics Magnafire digital camera.

[2] = tested on: β-galactosidase (lacZ) expressed in NIH 3T3 cells; details: for color of cells expressing lacZ after staining with the substrate: histochemical staining
Procedure: as §1, §2

[3] = solubility of the chromogen in water; type: physicochemical; details: unhydrolysed chromogen; forms insoluable blue precipitate upon hydrolysis

Row | Compound | subcellular location of staining in abfA-expressing cells ([1]; NIH 3T3, CMV-abfA, FIG. 2(A)) | appearance of stained AbfA+ cells under polarized light ([1]; NIH 3T3, CMV-abfA, polarized light, FIG. 2(B)) | color of cells expressing abfA after staining with the substrate [1] | staining from abfA expression in co-transfected cells (dual detection) ([1]; NIH 3T3 co-transfected with CMV-abfA and proBGN, one day after transfection, 0.02% substrate, FIGS. 2(C), 2(D)) | color of cells expressing lacZ after staining with the substrate [2] | solubility in water [3] | staining from lacZ expression in co-transfected cells (dual detection) ([2]; NIH 3T3 co-transfected with CMV-abfA and proBGN (nuclear-localizing β-galactosidase), one day after transfection, 0.02% substrate, FIGS. 2(C), 2(D))
1 | OC[C@H]1O[C@@H](Oc2c[nH]c3ccc(Br)cc23)C(O)C1O (stereo partly drawn) [Z-ara, 5-bromo-3-indolyl-α-arabinofuranoside] | predominantly cytoplasmic | distinct yellow birefringence | dark blue | blue cytoplasm | remain colorless | water-soluable | –
2 | OC[C@H]1O[C@@H](Oc2c[nH]c3cc(Cl)ccc23)[C@H](O)[C@@H](O)[C@H]1O [Red-gal, 6-chloro-3-indolyl-β-D-galactopyranaside] | – | – | – | – | red | – | –
3 | OC[C@H]1O[C@@H](Oc2c[nH]c3ccc(Br)c(Cl)c23)[C@H](O)[C@@H](O)[C@H]1O [X-gal, 5-bromo-4-chloro-3-indolyl-β-D-galactosidase] | – | – | no color change; also recorded: no blue staining | – | – | water-soluable | –
4 | 5-bromo-6-chloro-3-indolyl-β-D-galactopyranoside [Magenta-gal] | – | – | – | – | red | – | red nucleus
